We go through 23 compounds from US20250092033A1, “HETEROAROMATIC NITROGEN-OXIDE COMPOUND, PREPARATION METHOD THEREFOR, AND USE THEREOF” (BEIJING AVISTONE BIOTECHNOLOGY CO., LTD., priority 2021, published 2025).

Usually IC50 stands for the concentration at which inhibition is half-maximal. Lower therefore signals greater potency in that assay.

Experiment [1] has as its target T1, wild type (WT) MET kinase (Homo sapiens, UniProt P08581).
T1 construct: purchased Carna 08-151
The experiment is described as follows: Kinase inhibition experiment (HTRF KinEASE-TK kit), wild-type MET. Type of experiment: biochemical. The following applies: 10 concentrations, 3-fold dilution. The procedure:
(§1) The activity of the compounds was determined by detecting the residual amount of ATP after reacting with wild-type or mutant MET protein kinase by using an HTRF KinEASE-TK kit. […]
(§2) The compounds were determined on the selected kinase, the solvent control was set and a total of 10 concentrations were detected, diluted 3-fold, 2 replicates per concentration.
(§3) 1 volume of 5× kinase reaction buffer and 4 volumes of water; 5 mM MgCl2; 1 mM DTT; 1 mM MnCl2; or 2500 nm SEB.
(§4) 1) 10 nl or 4 μlof the diluted compound was transferred to each well of the reaction plate (784075 or 264706, Greiner or Thermo) with a pipette, the reaction plate was sealed with a sealing plate, and centrifuged at 1000 for 1 minute.
(§5) 2) 2× MET was prepared from 1× enzyme reaction buffer, 5 μl or 2 μl kinase was added to each well of the reaction plate, the reaction plate was sealed with a sealing plate, centrifuged at 1000 g for 30 seconds and incubated at room temperature for 10 min.
(§6) 3) a mixed solution of 2× TK-substrate-biotin and ATP were prepared from 1× enzyme reaction buffer solution, 5 μl or 2 μl TK-substrate-biotin/ATP of the mixed solution was added into a reaction plate, the reaction plate was sealed with a sealing plate, centrifuged at 1000 g for 30 seconds and reacted for 50 minutes or 10 minutes at room temperature.
(§7) 4) a mixed solution of 4× or 2× Sa-XL 665 and TK-antibody-Cryptate were prepared from HTRF detection buffer, 5 or 10 μl of the mixed solution of Sa-XL 665 and TK-antibody-Cryptate was added into each well, centrifuged at 1000 g for 30 seconds, and reacted at room temperature for 1 h.
(§8) 5) the fluorescence signals at 615 nm (cryptate) and 665 nm (XL665) were read with Envision 2104 or TECAN.
(§9) The data was analyzed using GraphPad Prism 6.0 or 7 software, and the dose-response curve was fitted with nonlinear S-curve regression, and the IC50 value was calculated therefrom.
(§10) Enzyme Inhibition Percent (%)=100-(Signalmpd-SignalAve_PC)/(SignalAve_VC-SignalAve_PC)×100
For orientation: In TR-FRET formats the signal depends on donor and acceptor labels being close together.

Experiment [2] relates to H1993 cell line. As to the kind of experiment: Cell proliferation inhibition experiment (CellTiter-Glo), H1993. Type of experiment: cell-based. The following applies: Homo sapiens, NCI-H1993, CTG, 72 h. The method, then: CellTiter-Glo™ live cell detection kit adopts luciferase as the detection substance, and the luciferase needs the participation of ATP in the luminescence process. CellTiter-Glo™ reagent was added into the cell culture medium and the luminescence value was measured. The light signal is in direct proportion to the amount of ATP in the system, ATP is in direct correlation with number of living cells. Therefore, the proliferation of cells can be detected by detecting the content of ATP with CellTiter-Glo kit.
In the experiment, the proliferation inhibition effect of the prepared compounds on tumor cell lines Hs746T, EBC-1 and H1993 was measured by a celltiter-glo (CTG) method, and 50% inhibition concentration IC50 was calculated.
The compounds were determined on the selected cells, the solvent control was set and a total of 10 concentrations were detected, 2 replicates per concentration.
a) Cells in the logarithmic growth phase were harvested and counted by a […]. The cell viability was detected by a trypan blue exclusion method to ensure that the cell viability was over 90%.
b) The cell concentration was adjusted; 30 μL of cell suspension was added to a 384-well plate respectively.
c) Cells in a 384-well plate were incubated overnight at 37° C., 5% CO2 and 95% humidity.
a) 10 times of drug solution was prepared with the highest concentration of 10 mM, 10 concentrations and 3 times dilution, 10 μL of drug solution was added into each well of a 384-well plate inoculated with cells, and three multiple wells were arranged for each drug concentration. DMSO was the blank control.
b) The cells in the 384-well plate were incubated for a further 72 h at 37° C., 5% CO2 and 95% humidity before CTG analysis.
a) The CTG reagent was melted and the cell plate was equilibrated to room temperature for 30 min.
b) An equal volume of CTG solution was added to each well.
c) Cells were lysed by shaking on an orbital shaker for 5 minutes.
d) The cell plate was left at room temperature for 20 minutes to stabilize the luminescence signal.
e) The cold light value was read.
The data was analyzed by GraphPad Prism 8 software, and the dose-response curve was fitted with nonlinear S-curve regression, and the IC50 value was calculated therefrom.
Cell viability(%)=(Lumdrugs to be tested-Lumblank control)/(Lumcell control-Lumblank control)×100%.
A general note: Cellular ATP, detected with luciferase, serves as a proxy for viable cell number.

Experiment [3] has as its target T2, MET D1228N (Homo sapiens, UniProt P08581, D1228N).
T2 construct: purchased Signalchem M52-12IG
The experiment is described as follows: Kinase inhibition experiment (HTRF KinEASE-TK kit), mutant MET D1228N. The format is biochemical. The following applies: 10 concentrations, 3-fold dilution. The procedure:
as §1, §2, §3, §4, §5, §6, §7, §8, §9, §10

Experiment [4] deals with T3, MET F1200I (Homo sapiens, UniProt P08581, F1200I).
T3 construct: purchased Signalchem M52-12GG/Y767-2
As to the kind of experiment: Kinase inhibition experiment (HTRF KinEASE-TK kit), mutant MET F1200I. Type of experiment: biochemical. To be noted: 10 concentrations, 3-fold dilution. The procedure:
as §1, §2, §3, §4, §5, §6, §7, §8, §9, §10

T3 sequence (P08581 25-1390 F1200I): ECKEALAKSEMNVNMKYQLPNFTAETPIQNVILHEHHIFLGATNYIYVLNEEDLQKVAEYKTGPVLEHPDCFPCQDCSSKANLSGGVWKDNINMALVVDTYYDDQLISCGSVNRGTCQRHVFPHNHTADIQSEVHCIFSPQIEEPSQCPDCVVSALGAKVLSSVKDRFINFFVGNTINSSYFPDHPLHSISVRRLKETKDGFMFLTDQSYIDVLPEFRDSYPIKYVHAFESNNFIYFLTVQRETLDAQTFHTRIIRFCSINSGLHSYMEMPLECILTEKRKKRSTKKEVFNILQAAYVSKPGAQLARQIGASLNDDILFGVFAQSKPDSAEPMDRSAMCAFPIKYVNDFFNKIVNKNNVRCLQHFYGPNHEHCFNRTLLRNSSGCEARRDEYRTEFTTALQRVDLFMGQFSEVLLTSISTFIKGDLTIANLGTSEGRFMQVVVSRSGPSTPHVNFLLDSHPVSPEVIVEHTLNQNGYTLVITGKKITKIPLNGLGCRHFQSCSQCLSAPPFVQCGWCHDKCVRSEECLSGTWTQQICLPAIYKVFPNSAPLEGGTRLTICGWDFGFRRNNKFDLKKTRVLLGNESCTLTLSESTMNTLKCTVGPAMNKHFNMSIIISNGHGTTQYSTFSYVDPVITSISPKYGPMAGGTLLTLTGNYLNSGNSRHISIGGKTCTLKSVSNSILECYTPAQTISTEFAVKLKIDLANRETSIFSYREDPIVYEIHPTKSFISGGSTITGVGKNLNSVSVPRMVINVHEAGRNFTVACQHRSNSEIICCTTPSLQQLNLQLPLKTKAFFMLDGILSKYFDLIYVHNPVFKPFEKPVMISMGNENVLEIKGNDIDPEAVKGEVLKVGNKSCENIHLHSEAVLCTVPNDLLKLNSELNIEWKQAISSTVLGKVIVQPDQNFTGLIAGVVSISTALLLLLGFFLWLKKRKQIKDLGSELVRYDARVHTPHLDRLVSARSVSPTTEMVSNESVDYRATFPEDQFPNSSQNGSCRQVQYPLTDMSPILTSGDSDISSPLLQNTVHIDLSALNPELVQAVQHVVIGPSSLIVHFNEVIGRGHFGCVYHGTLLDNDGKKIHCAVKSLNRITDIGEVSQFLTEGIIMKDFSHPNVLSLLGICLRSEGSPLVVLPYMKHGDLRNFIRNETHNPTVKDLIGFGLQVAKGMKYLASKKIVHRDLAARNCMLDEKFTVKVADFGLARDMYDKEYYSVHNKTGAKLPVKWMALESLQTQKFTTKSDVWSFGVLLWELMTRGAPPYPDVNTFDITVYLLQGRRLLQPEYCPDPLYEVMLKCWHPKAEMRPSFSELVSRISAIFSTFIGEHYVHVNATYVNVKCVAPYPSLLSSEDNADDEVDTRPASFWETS
T1 sequence (P08581 25-1390): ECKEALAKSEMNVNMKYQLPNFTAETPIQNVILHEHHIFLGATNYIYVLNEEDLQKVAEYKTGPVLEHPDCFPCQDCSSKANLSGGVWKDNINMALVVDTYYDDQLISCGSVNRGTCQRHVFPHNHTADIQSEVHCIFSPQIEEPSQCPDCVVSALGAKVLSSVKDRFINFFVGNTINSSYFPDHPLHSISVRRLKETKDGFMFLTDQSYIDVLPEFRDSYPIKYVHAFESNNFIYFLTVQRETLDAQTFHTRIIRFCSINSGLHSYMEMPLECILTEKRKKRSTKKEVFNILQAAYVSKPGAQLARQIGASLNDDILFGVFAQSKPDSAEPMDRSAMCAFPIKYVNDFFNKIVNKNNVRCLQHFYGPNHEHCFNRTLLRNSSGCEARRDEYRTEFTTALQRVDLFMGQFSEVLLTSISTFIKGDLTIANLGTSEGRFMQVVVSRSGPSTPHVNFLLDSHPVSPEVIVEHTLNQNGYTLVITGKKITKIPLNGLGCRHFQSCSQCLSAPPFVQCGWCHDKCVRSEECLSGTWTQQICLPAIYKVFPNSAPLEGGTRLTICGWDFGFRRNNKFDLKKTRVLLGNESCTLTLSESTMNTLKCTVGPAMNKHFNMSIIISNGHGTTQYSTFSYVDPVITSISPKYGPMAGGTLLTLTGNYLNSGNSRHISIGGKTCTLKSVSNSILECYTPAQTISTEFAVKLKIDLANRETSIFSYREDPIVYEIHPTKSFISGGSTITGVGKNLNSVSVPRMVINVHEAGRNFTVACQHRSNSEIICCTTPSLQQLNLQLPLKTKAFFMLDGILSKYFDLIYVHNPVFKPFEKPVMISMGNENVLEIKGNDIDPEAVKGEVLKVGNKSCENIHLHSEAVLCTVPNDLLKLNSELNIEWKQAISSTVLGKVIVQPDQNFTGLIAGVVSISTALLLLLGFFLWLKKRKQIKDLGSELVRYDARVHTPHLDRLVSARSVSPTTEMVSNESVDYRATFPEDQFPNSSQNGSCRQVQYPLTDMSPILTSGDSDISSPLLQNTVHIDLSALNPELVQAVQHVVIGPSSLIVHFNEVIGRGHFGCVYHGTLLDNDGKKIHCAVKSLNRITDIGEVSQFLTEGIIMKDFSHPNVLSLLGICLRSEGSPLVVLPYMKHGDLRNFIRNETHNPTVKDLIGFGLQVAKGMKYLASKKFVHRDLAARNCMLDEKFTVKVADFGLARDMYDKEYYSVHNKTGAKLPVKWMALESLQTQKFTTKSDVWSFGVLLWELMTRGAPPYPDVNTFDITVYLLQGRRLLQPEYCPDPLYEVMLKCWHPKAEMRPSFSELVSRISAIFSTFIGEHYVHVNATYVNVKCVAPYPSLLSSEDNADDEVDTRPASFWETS
T2 sequence (P08581 25-1390 D1228N): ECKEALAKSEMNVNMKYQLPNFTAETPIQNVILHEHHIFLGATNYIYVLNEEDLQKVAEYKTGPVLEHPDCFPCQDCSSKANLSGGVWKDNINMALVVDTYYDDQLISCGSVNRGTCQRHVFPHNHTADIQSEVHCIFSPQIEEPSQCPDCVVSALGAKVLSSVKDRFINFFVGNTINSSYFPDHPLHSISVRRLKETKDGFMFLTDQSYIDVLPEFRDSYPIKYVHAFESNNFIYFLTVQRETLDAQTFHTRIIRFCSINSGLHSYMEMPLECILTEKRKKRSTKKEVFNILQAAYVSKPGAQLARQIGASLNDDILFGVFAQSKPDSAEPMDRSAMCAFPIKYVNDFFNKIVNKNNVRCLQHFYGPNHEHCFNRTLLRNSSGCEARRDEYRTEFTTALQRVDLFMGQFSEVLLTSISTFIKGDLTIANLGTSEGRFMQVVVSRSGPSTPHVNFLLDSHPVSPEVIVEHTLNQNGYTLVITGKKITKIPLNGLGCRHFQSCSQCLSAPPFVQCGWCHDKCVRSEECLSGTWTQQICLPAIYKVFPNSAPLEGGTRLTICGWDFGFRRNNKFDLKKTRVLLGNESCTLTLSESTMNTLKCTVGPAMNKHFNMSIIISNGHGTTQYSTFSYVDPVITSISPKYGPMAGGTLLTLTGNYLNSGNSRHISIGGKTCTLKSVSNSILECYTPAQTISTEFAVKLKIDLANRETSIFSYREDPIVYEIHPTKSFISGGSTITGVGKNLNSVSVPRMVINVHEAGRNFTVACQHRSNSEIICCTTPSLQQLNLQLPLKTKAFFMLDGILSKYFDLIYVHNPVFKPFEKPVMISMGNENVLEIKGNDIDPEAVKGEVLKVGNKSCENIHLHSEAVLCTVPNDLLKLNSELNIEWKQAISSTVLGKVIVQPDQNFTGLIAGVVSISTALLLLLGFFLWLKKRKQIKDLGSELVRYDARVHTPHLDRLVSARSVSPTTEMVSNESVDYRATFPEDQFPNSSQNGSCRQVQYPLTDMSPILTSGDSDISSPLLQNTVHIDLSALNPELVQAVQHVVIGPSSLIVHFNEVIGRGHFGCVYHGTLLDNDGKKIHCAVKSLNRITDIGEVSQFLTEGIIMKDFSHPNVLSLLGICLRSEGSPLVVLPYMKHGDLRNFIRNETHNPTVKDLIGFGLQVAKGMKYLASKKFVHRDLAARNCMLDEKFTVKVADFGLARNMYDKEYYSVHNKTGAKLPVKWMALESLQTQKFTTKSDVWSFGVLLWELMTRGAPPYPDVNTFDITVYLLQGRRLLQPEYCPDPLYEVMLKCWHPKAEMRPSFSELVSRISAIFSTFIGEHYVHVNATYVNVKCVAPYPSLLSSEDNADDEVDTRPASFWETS

`CC[C@H](CO)Nc1n[nH]c2nccc(Oc3ccc(NC(=O)c4cccc(-c5ccc(F)cc5)[n+]4[O-])cc3F)c12` [Final product 5]: the concentration for half-maximal inhibition (IC50) in experiment [1] was found to be 5.2 nM; in experiment [2] it was 33 nM; in experiment [3], 12.8 nM; in experiment [4], 10.8 nM.
As to `O=C(Nc1ccc(Oc2ccnc3[nH]nc(NCC(CO)CO)c23)c(F)c1)c1cccc(-c2ccc(F)cc2)[n+]1[O-]` [Final product 17], the IC50 in experiment [1] came out at 1.4 nM; in experiment [2], 68.4 nM; in experiment [3], 7.5 nM; in experiment [4] it was 5.8 nM.
The matching figures for `O=C(Nc1ccc(Oc2ccnc3[nH]nc(N4CC(CO)C4)c23)c(F)c1)c1cccc(-c2ccc(F)cc2)[n+]1[O-]` [Final product 25]: 1.9 nM, 62.2 nM, 20.5 nM and 4.3 nM.
In the same order, the values of `O=C(Nc1ccc(Oc2ccnc3[nH]nc(N4CCC(F)(CO)CC4)c23)c(F)c1)c1cccc(-c2ccc(F)cc2)[n+]1[O-]` [Final product 30] are 1.7 nM, 50.2 nM, 11.2 nM and 5.5 nM.
In the same order, the values of `CC(O)C1CCN(c2n[nH]c3nccc(Oc4ccc(NC(=O)c5cccc(-c6ccc(F)cc6)[n+]5[O-])cc4F)c23)CC1` (centres unmarked) [Final product 31] are 3 nM, 35 nM, 40.7 nM and 7.9 nM.
Turning to `CC(O)C(CO)CNc1n[nH]c2nccc(Oc3ccc(NC(=O)c4cccc(-c5ccc(F)cc5)[n+]4[O-])cc3Cl)c12` (centres unmarked) [Final product 102], the figures for the IC50 in experiment [1], in experiment [3] and in experiment [4] were 1 nM, 6.3 nM and 2.1 nM, respectively.
The matching figures for `O=C(Nc1ccc(Oc2ccnc3[nH]nc(NC4CC(CO)C4)c23)c(Cl)c1)c1cccc(-c2ccc(F)cc2)[n+]1[O-]` (centres unmarked) [Final product 113]: 3.3 nM, 22.5 nM and 9.2 nM.
`O=C(Nc1ccc(Oc2ccnc3[nH]nc(N[C@H]4CC[C@@H](O)C4)c23)c(Cl)c1)c1cccc(-c2ccc(F)cc2)[n+]1[O-]` [Final product 114]: the IC50 stood at 5.1 nM in experiment [1], 18.7 nM in experiment [3] and 10.7 nM in experiment [4].
The matching figures for `O=C(Nc1ccc(Oc2ccnc3[nH]nc(N[C@H]4COC[C@@H]4O)c23)c(Cl)c1)c1cccc(-c2ccc(F)cc2)[n+]1[O-]` [Final product 115]: 0.8 nM, 10.9 nM and 6 nM.
The matching figures for `C[C@H](CO)Nc1n[nH]c2nccc(Oc3ccc(NC(=O)c4cccc(-c5ccc(Cl)cc5)[n+]4[O-])cc3Cl)c12` [Final product 116]: 4.6 nM, 28.7 nM and 10.7 nM.
As for `O=C(Nc1ccc(Oc2ccnc3[nH]nc(N[C@H]4CC[C@@H](O)C4)c23)c(Cl)c1)c1ccc(F)c(-c2ccc(F)cc2)[n+]1[O-]` [Final product 119], the values for the IC50 in experiment [1], in experiment [3] and in experiment [4] were 18 nM, 30.2 nM and 9.8 nM, respectively.
The matching figures for `O=C(Nc1ccc(Oc2ccnc3[nH]nc(N[C@H]4COC[C@@H]4O)c23)c(Cl)c1)c1ccc(F)c(-c2ccc(F)cc2)[n+]1[O-]` [Final product 120]: 1.3 nM, 17.6 nM and 14.5 nM.
The matching figures for `O=C(Nc1ccc(Oc2ccnc3[nH]nc(N[C@H]4COC[C@@H]4O)c23)c(Cl)c1)c1ccc(Cl)c(-c2ccc(F)cc2)[n+]1[O-]` [Final product 123]: 1 nM, 30.1 nM and 10 nM.
The matching figures for `Cc1ccc(C(=O)Nc2ccc(Oc3ccnc4[nH]nc(N[C@H]5COC[C@@H]5O)c34)c(Cl)c2)[n+]([O-])c1-c1ccc(F)cc1` [Final product 129]: 0.6 nM, 21.1 nM and 8.8 nM.
Consider `[2H]C([2H])([2H])c1ccc(C(=O)Nc2ccc(Oc3ccnc4[nH]nc(N[C@H](C)CO)c34)c(Cl)c2)[n+]([O-])c1-c1ccc(F)cc1` [Final product 134], for which the half-maximal inhibitory concentration (IC50) in experiment [1] stood at 3.3 nM; in experiment [3], 15.5 nM; in experiment [4], 28.3 nM.
In the case of `C[C@H](CO)Nc1n[nH]c2nccc(Oc3ccc(NC(=O)c4ccc(OCC(F)F)c(-c5ccc(F)cc5)[n+]4[O-])cc3Cl)c12` [Final product 141], the 50% inhibitory concentration (IC50) was 1.9 nM in experiment [1], 26.3 nM in experiment [3] and 33 nM in experiment [4].
With `C[C@H](CO)Nc1n[nH]c2nccc(Oc3ccc(NC(=O)c4ccc(OCC(F)(F)F)c(-c5ccc(F)cc5)[n+]4[O-])cc3Cl)c12` [Final product 142], the figures for the concentration for half-maximal inhibition (IC50) in experiment [1], in experiment [3] and in experiment [4] were 18 nM, 45.1 nM and 33 nM, respectively.
The matching figures for `C[C@H](CO)Nc1n[nH]c2nccc(Oc3ccc(NC(=O)c4ccc(F)c(-c5ccc(F)cc5)[n+]4[O-])c(F)c3)c12` [Final product 155]: 5.6 nM, 27.4 nM and 13.2 nM.
The matching figures for `C[C@H](CO)Nc1n[nH]c2nccc(Oc3cc(F)c(NC(=O)c4ccc(Cl)c(-c5ccc(F)cc5)[n+]4[O-])cc3F)c12` [Final product 157]: 1.7 nM, 46.2 nM and 17.5 nM.
In the same order, the values of `C[C@H](CO)Nc1n[nH]c2nccc(Oc3cc(F)c(NC(=O)c4ccc(Cl)c(-c5ccc(F)cc5)[n+]4[O-])cc3Cl)c12` [Final product 158] are 2.5 nM, 29.4 nM and 15.9 nM.
With `Cc1ccc(C(=O)Nc2ccc(Oc3ccnc4[nH]nc(N[C@H](C)CO)c34)cc2F)[n+]([O-])c1-c1ccc(F)cc1` [Final product 160], the results for the concentration for half-maximal inhibition (IC50) in experiment [1], in experiment [3] and in experiment [4] were 5.7 nM, 19.6 nM and 12.9 nM, respectively.
In the same order, the values of `C[C@H](CO)Cn1ccc2ncnc(Oc3ccc(NC(=O)c4cccc(-c5ccc(F)cc5)[n+]4[O-])cc3F)c21` [Final product 169, (S)-2-((3-fluoro-4-((5-(3-hydroxy-2-methylpropyl)-5H-pyrrolo[3,2-d]pyrimidin-4-yl)oxy)phenyl)carbamoyl)-6-(4-fluorophenyl)pyridine 1-oxide] are 1.8 nM, 6.9 nM and 2.1 nM.
As to `C[C@@H](CO)Cn1ccc2ncnc(Oc3ccc(NC(=O)c4cccc(-c5ccc(F)cc5)[n+]4[O-])cc3F)c21` [Final product 170, (R)-2-((3-fluoro-4-((5-(3-hydroxy-2-methylpropyl)-5H-pyrrolo[3,2-d]pyrimidin-4-yl)oxy)phenyl)carbamoyl)-6-(4-fluorophenyl)pyridine 1-oxide], the half-inhibitory concentration (IC50) in experiment [1] is 4.2 nM; in experiment [3] it was 16.2 nM; in experiment [4], 8.5 nM.
